Reference: patent US11919880B2, “HCV protease inhibitors” (The Regents of the University of California, priority 2020, dated 2024)
Several values for one entry are separate records, joined by “and”; a condition that tells them apart may be missing. Equal entries are not always repeated. Where two headings read alike, the source gives them in different places.

Experiments:
[1] = tested on: sub-genomic HCV GT1b replicon (BM4-5 FEO), GT1b WT; test: HCV replicon assay (luciferase antiviral efficacy); assay type: cell-based, hepatitis C virus; details: BM4-5 FEO cells, 48 h, read-out: EC50 ± SD Gt 1b wt
Protocol: (§1) The 20 compounds from class C were tested […] for inhibition of viral replication (GT1b wild-type) in BM4-5 FEO cells and for mammalian cell cytotoxicity. The numbers of virus particles were evaluated by quantifying luciferase produced during the virus life cycle^41 while toxicity was evaluated using a cell viability assay. […] Prior to additional biochemical studies, several key chemical properties for each of the Class C molecules were determined.
Replicon construct. The BM4-5 replicon is a sub-genomic HCV GT1b replicon that contains adaptive mutation of serine in the NS5A region^41. The firefly luciferase gene was added into the BM4-5 replicon to generate BM4-5 FEO replicon. The construction procedures have been previously described^42.
(§2) Luciferase antiviral efficacy and cells viability assays. BM4-5 FEO replicon approximately 10,000 cells in 100 μL of medium were seeded into 96-well plates and incubate for 6 h for attachment. Then, the compounds were added at to the wells in specific concentration and incubate for 48 h. The luciferase assay (Bright-Glo; Promega) was carried out according to the manufacturer's instructions. Luciferase activity was determined using a microplate luminometer (Veritas microplate luminometer; Turner Biosystems). For cells viability assays, BM4-5 FEO at the density 10,000 cells in 100 μL medium was incubated at 37° C. for 6 h for attachment, then the compounds were added and incubated for another 48 hours. The number of living cells were measured by Cell Titer-blue assay (Promega). The fluorescence absorption (560Ex/590Em) for 96-well plate was read by Benchmark Scientific MR9600 with. The activity and toxicity of each compound were measured by at least six different concentrations in triplicate.

[2] = tested on: BM4-5 human liver cells; test: CellTiter-Blue cell viability assay; assay type: cell-based; details: BM4-5 FEO cells, 48 h, read-out: LC50 ± SD
Protocol: as §1, with “determined. Calculated polar surface area (PSA), lipophilicity (LogP), and molecular weight for each compound (Table IA) complied with the general criteria for drug-like molecules.” for “determined.”
as §2

[3] = molecular target: T1, recombinant HCV NS3/4A GT1b WT (Hepatitis C virus genotype 1b, UniProt Q9WMX2); test: biochemical; assay type: biochemical
T1 construct: recombinant HCV NS3/4A GT1b WT
Protocol: (§3) In order to validate that this group of molecules elicit their cellular effects via inhibition of the viral protease, we incubated compounds 1, 12 and 22 with recombinant NS3/4A protease GT1b and an inhibitor-resistant mutant containing a D168A mutation. D168 is located in the S2 and S4 sub-pockets and mutations in these sub-pockets can cause significant resistance to the inhibitors resulting in decreased activity of peptidomimetic inhibitors^21,37-38. […] As a control, potency was evaluated using the approved HCV protease inhibitor, simeprevir.
(§4) HCV NS3/4A enzymatic inhibition assay. The activities of two proteases (recombinant HCV NS3/4A GT1b WT and full-length HCV NS3/4A GT1b D168A) were measured using a fluorogenic substrate, Ac-Glu-Glu-Val-Val-Ala-Cys-AMC (Sigma-Aldrich) where AMC corresponds to 7-amino-4-methylcourmarin. Assays were performed in 50 mM HEPES pH 7.4, 15 mM NaCl, 0.01% Triton X-100, 10 mM DTT in a black 384-well microplate (BD Falcon). […] Fluorescence was monitored at excitation and emission wavelengths of 360 nm and 460 nm in a Synergy™ HTX Multi-Mode Microplate Reader (BioTek). Data was visualized using Gen5™ Software (Biotek). The activity of enzyme was calculated from the change in relative fluorescence units (RFU) over time. For inhibition assays, compounds were pre-incubated with enzyme for 240 minutes prior to adding the enzyme/inhibitor mixture to the substrate. All assays were performed in triplicate wells.

[4] = molecular target: human chymotrypsin (Homo sapiens, UniProt P17538); test: Counter-screening assay, chymotrypsin; assay type: biochemical; details: 13.08 and 14.68, 5.2 μM of 1, 12, and 22, respectively; 40 nM enzyme
Protocol: (§5) In addition, we tested these compounds for inhibition against the fungal serine protease, proteinase K that is structurally related to several mammalian serine proteases such as the proprotein convertase enzymes and furin^44.
(§6) Counter-screening assay. Counter-screening assays were performed with 40 nM of bovine trypsin (Sigma), pig pancreatic elastase (Sigma), human chymotrypsin and proteinase k and 60 μM of the appropriate fluorogenic substrates for trypsin, elastase, chymotrypsin, and proteinase K are Boc-Leu-Arg-Arg-AMC (trypsin), Me-Arg-Arg-Pro-Val-AMC (elastase) and Suc-Arg-Arg-Pro-Phe-AMC (chymotrypsin and proteinase K). Assays were performed in 50 mM HEPES pH 7.4, 15 mM NaCl, 0.01% Triton X-100 in black 96-well microplates (BD Falcon) at a final volume of 50 μL. The final concentration of DMSO in each well was 2.5%. Fluorescence was measured as outlined above.

[5] = molecular target: T2, pig pancreatic elastase (Sus scrofa, UniProt P00772); test: Counter-screening assay, elastase; assay type: biochemical; details: 13.08 and 14.68, 5.2 μM of 1, 12, and 22, respectively; 40 nM enzyme
T2 construct: purchased Sigma
Protocol: as §5, §6

[6] = molecular target: T3, full-length HCV NS3/4A GT1b D168A (Hepatitis C virus genotype 1b, UniProt Q9WMX2, D1194A); test: biochemical; assay type: biochemical
T3 construct: full-length HCV NS3/4A GT1b D168A; His tag; made in house; host or cells: E. coli Rosetta 2(DE3)
Protocol: as §3
(§7) Plasmid construction and purification of HCV NS3/A protein. Drug resistant mutant D168A was generated by mutagenesis using NS3-containing recombinant plasmid (pETDuet-1 Hepatis C Virus NS3/4A, a gift from Michael Johnson, Addgene plasmid #16196) as a template. The single mutation of aspartic acid (D) to alanine (A) was introduced by mutagenesis at position 168 using specific primers (Forward: 5′-[…]-3′ and Reverse: 5′-[…]-3′). The over expression and purification were preformed followed the method that previously described^43. Rosetta 2(DE3) cells (Novagen) containing the modified recombinant plasmid with histidine tag were grown in Lysogeny Broth medium. The over expression was introduced by addition of Isopropyl β-D-1-thiogalactopyranoside (IPTG) to the final concentration of 0.5 mM and the bacteria were incubated at room temperature for 16 h. […] The solution was passed through Ni-NTA column and washed by buffer B (50 mM HEPES, pH 7.6, 500 mM NaCl, 50 mM imidazole, 5 mM β-MCE, 0.2% Triton X-100, and 15% glycerol). The His-tag fused protein was eluted by buffer C (50 mM HEPES, pH 7.6, 500 mM of NaCl, 500 mM of imidazole, 5 mM β-MCE, 0.2% Triton X-100, and 15% glycerol) followed by dialysis using buffer (50 mM HEPES, pH 7.6 and 500 mM of NaCl). Purified NS3/4A protein was concentrated an d buffer exchanged into buffer D (50 mM HEPES, pH 7.6, 500 mM of NaCl, 5 mM β-MCE, 0.2% Triton X-100, and 50% glycerol) using a protein concentrator 10 k (Amicon®).
as §4

[7] = tested on: full-length HCV NS3/4A GT1b D168A; test: biochemical; assay type: biochemical, hepatitis C virus; details: for IC50—D168A/IC50—wt ratio: D168A mutant versus wt protease
Protocol: as §3, §7, §4

[8] = molecular target: T4, bovine trypsin (Bos taurus, UniProt P00760); test: Counter-screening assay, trypsin; assay type: biochemical; details: 13.08 and 14.68, 5.2 μM of 1, 12, and 22, respectively; 40 nM enzyme
T4 construct: purchased Sigma
Protocol: as §5, §6

[9] = molecular target: proteinase K (Parengyodontium album, UniProt P06873); test: Counter-screening assay, proteinase K; assay type: biochemical, fungal; details: 13.08 and 14.68, 5.2 μM of 1, 12, and 22, respectively; 40 nM enzyme
Protocol: as §5, §6

[10] = Potentiometric titration, Sirius T3 instrument; assay type: physicochemical
Source text: As highlighted in Scheme 1, the tryptophan derived HCV NS3/4 protease inhibitors, 21 and 22, were synthesized starting from 3-(piperidine-1-yl)propan-1-amine (23), which could be accessed in two steps from commercially available N-(bromopropyl)phthalimide and piperidine, and N-Boc protected L-tryptophan (24). Thus, HBTU mediated coupling of […] and 24, followed by N-Boc deprotection and carbamoylation reaction with the appropriate isocyanate provided the desired compounds. 21 and 22. These test compounds were characterized by ^1H-NMR, ^13C-NMR, and HRMS. In addition, experimental pKa values, lipophilicity (LogP), and LogD7.4 of 22 were determined via potentiometric titrations using a Sirius T3 instrument. Compounds 21 and 22, as well as the 20 compounds from the primary screen, were then tested in cell-based assays to evaluate activity against HCV and toxicity to the host cells (Table 2).

[11] = 40 nM enzyme, 60 μM Ac-Glu-Glu-Val-Val-Ala-Cys-AMC, 240 min pre-incubation, read-out: IC50 GT1b WT
[12] = 40 nM enzyme, 60 μM Ac-Glu-Glu-Val-Val-Ala-Cys-AMC, 240 min pre-incubation, read-out: IC50 GT1b D168A

T1 sequence (Q9WMX2 1658-1711): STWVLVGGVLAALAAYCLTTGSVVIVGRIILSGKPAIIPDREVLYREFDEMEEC
T1 sequence (Q9WMX2 1027-1657): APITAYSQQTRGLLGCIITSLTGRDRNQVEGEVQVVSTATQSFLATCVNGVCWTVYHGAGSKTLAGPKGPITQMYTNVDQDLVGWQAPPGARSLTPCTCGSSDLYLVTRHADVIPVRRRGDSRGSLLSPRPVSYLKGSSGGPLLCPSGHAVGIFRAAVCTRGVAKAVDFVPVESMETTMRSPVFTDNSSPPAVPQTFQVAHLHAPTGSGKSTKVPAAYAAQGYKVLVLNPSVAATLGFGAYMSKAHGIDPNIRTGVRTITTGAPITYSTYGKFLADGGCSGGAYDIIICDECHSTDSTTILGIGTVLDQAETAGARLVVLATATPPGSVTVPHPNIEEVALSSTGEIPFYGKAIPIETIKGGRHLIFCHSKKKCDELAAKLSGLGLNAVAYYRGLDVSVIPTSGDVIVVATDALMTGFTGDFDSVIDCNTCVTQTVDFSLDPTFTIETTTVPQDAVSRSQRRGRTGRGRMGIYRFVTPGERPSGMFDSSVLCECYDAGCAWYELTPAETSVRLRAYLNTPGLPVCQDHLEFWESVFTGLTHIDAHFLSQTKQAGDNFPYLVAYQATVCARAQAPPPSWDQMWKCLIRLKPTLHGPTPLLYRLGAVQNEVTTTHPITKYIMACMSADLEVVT
T3 sequence (Q9WMX2 1027-1657, looked up, stated change not applied): as the sequence (Q9WMX2 1027-1657) above
T3 sequence (Q9WMX2 1658-1711, stated change not applied): as the sequence (Q9WMX2 1658-1711) above
T4 sequence (P00760 24-246): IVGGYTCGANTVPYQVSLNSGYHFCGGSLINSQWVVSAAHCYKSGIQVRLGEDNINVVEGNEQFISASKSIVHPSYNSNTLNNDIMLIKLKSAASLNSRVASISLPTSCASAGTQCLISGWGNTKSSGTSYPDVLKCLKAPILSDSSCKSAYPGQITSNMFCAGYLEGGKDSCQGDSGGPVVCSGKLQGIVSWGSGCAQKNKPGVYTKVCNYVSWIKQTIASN
Sequence of human chymotrypsin (P17538 19-263): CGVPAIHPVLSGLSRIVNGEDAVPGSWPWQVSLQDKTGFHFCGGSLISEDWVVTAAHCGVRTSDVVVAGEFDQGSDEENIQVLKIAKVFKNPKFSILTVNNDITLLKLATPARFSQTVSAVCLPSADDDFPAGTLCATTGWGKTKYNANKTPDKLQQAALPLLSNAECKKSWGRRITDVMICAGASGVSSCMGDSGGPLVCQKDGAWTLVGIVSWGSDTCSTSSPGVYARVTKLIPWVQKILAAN
T2 sequence (P00772 27-266): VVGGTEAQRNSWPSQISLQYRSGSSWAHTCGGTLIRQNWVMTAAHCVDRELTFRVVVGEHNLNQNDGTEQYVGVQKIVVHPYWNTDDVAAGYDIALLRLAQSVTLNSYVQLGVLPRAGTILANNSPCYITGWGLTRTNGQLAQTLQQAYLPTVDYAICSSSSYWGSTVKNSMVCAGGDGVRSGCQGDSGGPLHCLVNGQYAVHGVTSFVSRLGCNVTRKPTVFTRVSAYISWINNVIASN
Sequence of proteinase K (P06873 106-384): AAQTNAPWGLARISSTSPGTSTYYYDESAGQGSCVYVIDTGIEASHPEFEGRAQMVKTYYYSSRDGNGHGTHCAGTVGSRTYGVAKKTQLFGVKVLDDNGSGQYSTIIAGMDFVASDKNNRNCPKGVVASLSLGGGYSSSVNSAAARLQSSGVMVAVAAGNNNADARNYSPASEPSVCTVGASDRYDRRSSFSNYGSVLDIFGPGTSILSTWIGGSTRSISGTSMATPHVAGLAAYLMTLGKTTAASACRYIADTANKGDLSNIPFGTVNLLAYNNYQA

| Compound | EC50 [1] [µM] | CC50 [2] [µM] | also measured |
| --- | --- | --- | --- |
| CC1CCCCN1CCCNC(=O)C(Cc1c[nH]c2ccccc12)NC(=O)Nc1ccc(N(C)C)cc1 (centres unmarked) [Compound 6] | 63.4 ± 11 | > 100 | – |
| CC(C)c1ccc(NC(=O)N[C@@H](Cc2c[nH]c3ccccc23)C(=O)NCCCN2CCCCC2)cc1 [Compound 22] | 0.64 ± 0.13 | 47 ± 6.98 | IC50 [3, 11]: 5.2 µM and 4.6 µM; Potency lower than simeprevir ([3]; wt protease IC50 compared with simeprevir): 120 fold; Decrease of chymotrypsin activity [4]: did not decrease activity; Decrease of elastase activity [5]: did not decrease activity; IC50 [6, 12]: 5.98 ± 0.43 µM; IC50—D168A/IC50—wt ratio [7]: 1.4; Change in potency, D168A mutant versus wt protease ([7]; result in words): no significant reduction on potency; Decrease of trypsin activity [8]: did not decrease activity; Decrease of proteinase K activity [9]: did not decrease activity; Experiment value of logP [10]: 4.1 |
| COc1ccc2c(O[C@@H]3C[C@H]4C(=O)N[C@]5(C(=O)NS(=O)(=O)C6CC6)C[C@H]5/C=C\CCCCN(C)C(=O)[C@@H]4C3)cc(-c3nc(C(C)C)cs3)nc2c1C [Simeprevir, reference compound] | – | – | IC50 [3, 11]: 0.043 µM; IC50 [6, 12]: 0.247 ± 0.39 µM; IC50—D168A/IC50—wt ratio [7]: 5.7 |
| Cc1ccc2[nH]cc(CC(NC(=O)Nc3cc(Cl)ccc3Cl)C(=O)NCCCN3CCCCC3C)c2c1 (centres unmarked) [Compound 7] | 6.35 ± 1.11 | – | – |
| COc1ccc(OC)c(NC(=O)NC(Cc2c[nH]c3ccccc23)C(=O)NCCCN2CCCCC2C)c1 (centres unmarked) [Compound 9] | 51.4 ± 15.2 | > 100 | – |
| O=C(Nc1cccc(Br)c1)NC(Cc1c[nH]c2ccccc12)C(=O)NCCCNC1CCCCCC1 (centres unmarked) [Compound 15] | 6.82 ± 0.74 | – | – |
| C[C@H]1CCCCN1CCCNC(=O)C(Cc1c[nH]c2ccccc12)NC(=O)Nc1cccc(Br)c1 (some centres unmarked) [Compound 1] | – | – | IC50 [3]: 14.7 ± 1.23 µM; IC50 [6]: 11.4 ± 0.45 µM; EC50 ([1]; Hepatitis C virus, GT1B): 0.95 ± 0.26 µM |
| O=C(Nc1ccccc1Br)NC(Cc1c[nH]c2ccccc12)C(=O)NCCCNC1CCCCC1O (centres unmarked) [Compound 18] | 4.58 ± 0.32 | – | – |
| CC(C)c1ccc(NC(=O)NC(Cc2c[nH]c3ccccc23)C(=O)NCCCN2CCCC[C@@H]2C)cc1 (some centres unmarked) [Compound 12] | – | – | IC50 [3]: 13.1 ± 2.77 µM; IC50 [6]: 11.5 ± 0.55 µM; EC50 ([1]; Hepatitis C virus, GT1B): 1.5 ± 0.07 µM |
| CC(=O)c1cccc(NC(=O)NC(Cc2c[nH]c3ccccc23)C(=O)NCCCN2CCCCC2C)c1 (centres unmarked) [Compound 8] | 10.9 ± 4.93 | > 100 | – |
| CC1CCCCN1CCCNC(=O)C(Cc1c[nH]c2ccc(F)cc12)NC(=O)Nc1cc(Cl)ccc1Cl (centres unmarked) [Compound 2] | 6.12 ± 2.3 | – | – |
| COc1ccc2[nH]cc(CC(NC(=O)Nc3cc(Cl)ccc3Cl)C(=O)NCCCN3CCCCC3C)c2c1 (centres unmarked) [Compound 10] | 33.2 ± 3.17 | > 100 | – |
| CC1CCCC(C)N1NCCCNC(=O)C(Cc1c[nH]c2ccccc12)NC(=O)Nc1ccccc1Br (centres unmarked) [Compound 14] | 5.15 ± 0.63 | – | – |
| O=C(Nc1ccccc1Br)NC(Cc1c[nH]c2ccccc12)C(=O)NCCCNC1CCC(O)CC1 (centres unmarked) [Compound 19] | 32.6 ± 14.8 | > 100 | – |
| O=C(Nc1cccc(Br)c1)N[C@@H](Cc1c[nH]c2ccccc12)C(=O)NCCCN1CCCCC1 [Compound 21] | 1.3 ± 1.25 | 29.5 ± 1.48 | – |
| CCOC(=O)C1CCCCN1CCCNC(=O)C(Cc1c[nH]c2ccccc12)NC(=O)Nc1ccccc1Br (centres unmarked) [Compound 17] | 2.98 ± 1.08 | – | – |
| O=C(Nc1ccccc1Br)NC(Cc1c[nH]c2ccccc12)C(=O)NCCCNC1CC2CCC1C2 (centres unmarked) [Compound 11] | 5.99 ± 2.61 | – | – |
| CC1CCCCN1CCCNC(=O)C(Cc1c[nH]c2ccccc12)NC(=O)Nc1c(F)cc(Br)cc1F (centres unmarked) [Compound 13] | 35.4 ± 7.71 | – | – |
